Consider eleven compounds from patent US8791132B2, “Compounds and methods for treatment of hypertension” (Medivation Technologies, Inc., priority 2011, dated 2014).

In general, inhibition refers to the drop in the measured response relative to a control, in per cent. One may read the Ki as a measure of affinity in units of concentration, obtained from inhibition or displacement.

Where two headings read alike, the source gives them in different places.

For experiment [1], the target named is T1, human recombinant adrenergic α2A receptor (Homo sapiens, UniProt P08913).
T1 construct: expressed in transfected cells; host or cells: insect Sf9 cells
T1 sequence (P08913 1-465): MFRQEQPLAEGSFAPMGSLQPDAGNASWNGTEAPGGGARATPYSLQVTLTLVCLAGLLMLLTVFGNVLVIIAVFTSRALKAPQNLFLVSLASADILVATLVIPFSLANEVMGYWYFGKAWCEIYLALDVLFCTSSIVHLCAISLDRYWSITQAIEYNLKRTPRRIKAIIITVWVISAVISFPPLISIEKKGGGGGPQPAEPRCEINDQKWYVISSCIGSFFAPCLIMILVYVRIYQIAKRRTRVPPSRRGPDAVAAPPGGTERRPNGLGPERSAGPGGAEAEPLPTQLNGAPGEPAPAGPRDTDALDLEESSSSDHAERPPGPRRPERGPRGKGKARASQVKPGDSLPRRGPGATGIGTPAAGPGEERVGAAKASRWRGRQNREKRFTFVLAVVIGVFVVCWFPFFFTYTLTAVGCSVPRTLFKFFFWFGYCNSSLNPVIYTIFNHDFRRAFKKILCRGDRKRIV
Nature of the experiment: Radioligand binding, adrenergic α2A ([3H]MK-912). In short, it runs like this:
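In 50 mM Tris-HCl (pH 7.4) containing 12.5 mM MgCl2 and 2 mM EDTA, Sf9-expressed receptor was exposed to test compound plus 1 nM [3H]MK-912 at 25 °C for 60 min. Specific binding, corrected using 10 μM WB-4101, was quantified by filtration and counting and expressed as percent inhibition.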

Experiment [2] deals with T2, rat adrenergic α1B receptor (Rattus norvegicus, UniProt P15823).
T2 construct: rat adrenergic α1B receptor obtained from Wistar Rat liver; from tissue; host or cells: Wistar rat liver
T2 sequence (P15823 1-515): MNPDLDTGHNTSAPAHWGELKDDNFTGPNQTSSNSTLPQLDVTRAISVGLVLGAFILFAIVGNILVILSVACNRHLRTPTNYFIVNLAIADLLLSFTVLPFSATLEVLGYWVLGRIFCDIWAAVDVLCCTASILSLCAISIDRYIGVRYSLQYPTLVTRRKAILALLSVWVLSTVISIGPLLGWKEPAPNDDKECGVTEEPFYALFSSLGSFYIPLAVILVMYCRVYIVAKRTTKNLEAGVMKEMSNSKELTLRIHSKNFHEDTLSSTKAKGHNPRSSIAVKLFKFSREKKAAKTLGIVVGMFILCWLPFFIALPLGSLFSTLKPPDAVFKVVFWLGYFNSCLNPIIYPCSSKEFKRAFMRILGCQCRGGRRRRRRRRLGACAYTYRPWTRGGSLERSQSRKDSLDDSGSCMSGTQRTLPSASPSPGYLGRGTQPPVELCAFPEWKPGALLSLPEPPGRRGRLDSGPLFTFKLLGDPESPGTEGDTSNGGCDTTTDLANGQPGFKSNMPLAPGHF
Nature of the experiment: Radioligand binding, adrenergic α1B ([3H]Prazosin). The following applies: for Percentage inhibition of ligand binding, Adrenergic α1B (0.1 μM) / Percentage inhibition of ligand binding, Adrenergic α1B: 0.1 µM. In short, it runs like this: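 Filter binding with Wistar rat liver α1B preparation: test compound plus 0.25 nM [3H]prazosin, 1 h at 25° C in modified Tris-HCl buffer pH 7.4.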

The target of experiment [3] is T3, human recombinant adrenergic α2B receptor (Homo sapiens, UniProt P18089).
T3 construct: expressed in transfected cells; host or cells: CHO-K1
T3 sequence (P18089 1-450): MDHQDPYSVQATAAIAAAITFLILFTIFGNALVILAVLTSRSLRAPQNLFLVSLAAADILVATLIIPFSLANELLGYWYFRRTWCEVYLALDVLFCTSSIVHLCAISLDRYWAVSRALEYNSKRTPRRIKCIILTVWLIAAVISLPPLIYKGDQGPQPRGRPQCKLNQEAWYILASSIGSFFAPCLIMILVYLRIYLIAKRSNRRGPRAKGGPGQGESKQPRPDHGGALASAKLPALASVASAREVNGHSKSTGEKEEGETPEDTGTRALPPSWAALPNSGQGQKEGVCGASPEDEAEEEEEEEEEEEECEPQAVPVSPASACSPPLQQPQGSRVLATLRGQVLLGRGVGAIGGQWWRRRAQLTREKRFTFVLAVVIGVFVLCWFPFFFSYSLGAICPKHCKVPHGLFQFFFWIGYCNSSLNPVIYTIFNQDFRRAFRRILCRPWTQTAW
Briefly: Radioligand binding, adrenergic α2B ([3H]Rauwolscine). The following applies: for Percentage inhibition of ligand binding, Adrenergic α2B (0.03 μM) / Percentage inhibition of ligand binding, Adrenergic α2B: 0.03 µM; for inhibition at 0.1 µM: read-out: Percentage inhibition of ligand binding, Adrenergic α2B (0.1 μM), compound at 0.1 μM. In short, it runs like this: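 Values are percent inhibition of specific radioligand binding. The receptor, expressed in CHO-K1 cells, was exposed to 2.5 nM [3H]Rauwolscine at 25° C for 60 min, with 10 μM Prazosin marking non-specific binding.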

The mark [4] stands for this setting: compound at 0.1 μM, [3H]MK-912, repeat datapoints each shown, 0.1 µM.
Where [5] appears, read: compound at 0.1 μM, [3H]Prazosin, repeat datapoints each shown.
Where [6] appears, read: compound at 0.03 μM, [3H]Rauwolscine, repeat datapoints each shown.
Where [7] appears, read: read-out: Percentage inhibition of ligand binding, Adrenergic α2A (0.1 μM), compound at 0.1 μM, [3H]MK-912, repeat datapoints each shown.
Where [8] appears, read: read-out: Percentage inhibition of ligand binding, Adrenergic α1B (0.1 μM), compound at 0.1 μM, [3H]Prazosin, repeat datapoints each shown.
The mark [9] stands for this setting: read-out: Percentage inhibition of ligand binding, Adrenergic α2B (0.03 μM), compound at 0.03 μM, [3H]Rauwolscine, repeat datapoints each shown.
Setting [10] is: compound at 0.1 μM, [3H]Prazosin, repeat assays, each datapoint shown.
Where [11] appears, read: compound at 0.03 μM, [3H]Rauwolscine, repeat assays, each datapoint shown.
Where [12] appears, read: [3H]Rauwolscine, repeat datapoints each shown.
Where [13] appears, read: compound at 0.1 μM, [3H]MK-912, repeat assays, each datapoint shown, read-out: Percentage inhibition of ligand binding, Adrenergic α2A.

Take `Cc1cnc2c(c1)c1c(n2CC(O)c2ccncc2)CCN2CCCC12` (single isomer, unassigned) [IV-209c, 2-(9-Methyl-1,2,3,4,5,10c-hexahydro-3a,6,7-triaza-cyclopenta[c]fluoren-6-yl)-1-pyridin-4-yl-ethanol]: the “Percentage inhibition of ligand binding, Adrenergic α2A (0.1 μM)” value in experiment [1] (setting [4]) is listed as 59%. In addition, in experiment [2] (setting [5]), the “Percentage inhibition of ligand binding, Adrenergic α1B (0.1 μM)” value was 98%. Also, the “Percentage inhibition of ligand binding, Adrenergic α2B (0.03 μM)” value in experiment [3] (setting [6]) is 102%.
With `CN1CCc2c(c3ccncc3n2CC(C)(O)c2cccnc2)C1` (centres unmarked) [II-129], the inhibition at 0.1 µM in experiment [1] (setting [7]) turned out to be 12%; in experiment [2] (setting [8]) it was 2%. Moreover, in experiment [3] (setting [9]), the inhibition at 0.03 µM is 1%.
With `Cc1ccc2c(c1)c1c(n2CC(OC(=O)N(C)C)c2ccncc2)CCN(C)C1` (single isomer, unassigned) [141a, N,N-dimethyl-carbamic acid 2-(2,8-dimethyl-1,2,3,4-tetrahydro-pyrido[4,3-b]indol-5-yl)-1-pyridin-4-yl-ethyl ester], the “Percentage inhibition of ligand binding, Adrenergic α2A (0.1 μM)” value in experiment [1] (setting [4]) is −5%. In experiment [2] (setting [5]), the “Percentage inhibition of ligand binding, Adrenergic α1B (0.1 μM)” value stood at 25%. For the same compound, the “Percentage inhibition of ligand binding, Adrenergic α2B (0.03 μM)” value in experiment [3] (setting [6]) came to 70%.
As for `Cc1ccc2c(c1)c1c(n2CC(O)c2cccnc2)CCN(CCO)C1` (single isomer, unassigned) [21b], the “Percentage inhibition of ligand binding, Adrenergic α2A” value in experiment [1] (compound at 0.1 μM, [3H]MK-912, repeat assays, each datapoint shown, 0.1 µM) is listed as −3%. Besides, the “Percentage inhibition of ligand binding, Adrenergic α1B” value in experiment [2] (setting [10]) was −2%. The “Percentage inhibition of ligand binding, Adrenergic α2B” value in experiment [3] (setting [11]) is reported as 1%.
As to `Cc1ccc2c(c1)c1c(n2CC(N)c2ccncc2)CN(C)CC1` (centres unmarked) [compound 153, 2-(2,6-dimethyl-3,4-dihydro-1H-pyrido[3,4-b]indol-9(2H)-yl)-1-(pyridin-4-yl)ethanamine], the inhibition at 0.1 µM came out at 6% in experiment [1] (setting [7]) and 17% in experiment [2] (setting [8]). The inhibition at 0.03 µM in experiment [3] (setting [9]) was determined as 17%.
As to `CN1CCc2c(c3cc(Cl)ccc3n2CCc2ccc(F)cc2)C1` [compound 217], the inhibition at 0.1 µM in experiment [1] (setting [7]) was 74%; in experiment [2] (setting [8]), 62%; in experiment [3] (setting [12]), 102%.
For the compound `CN1CCc2c(c3ccc(C(F)(F)F)cc3n2CC(O)c2ccncc2)C1` (centres unmarked) [compound 65, 2-(2-methyl-7-(trifluoromethyl)-3,4-dihydro-1H-pyrido[4,3-b]indol-5(2H)-yl)-1-(pyridin-4-yl)ethanol], the inhibition at 0.1 µM was -3% in experiment [1] (setting [13]) and -13% in experiment [2] (compound at 0.1 μM, [3H]Prazosin, repeat assays, each datapoint shown, read-out: Percentage inhibition of ligand binding, Adrenergic α1B). In addition, the inhibition at 0.03 µM in experiment [3] (compound at 0.03 μM, [3H]Rauwolscine, repeat assays, each datapoint shown, read-out: Percentage inhibition of ligand binding, Adrenergic α2B) was 64%.
On to `Cc1ccc2c(c1)c1c(n2CC(O)c2ccc(F)cc2)CCN2CCCC12` (single isomer, unassigned) [II-120a, 1-(4-fluoro-phenyl)-2-(9-methyl-1,2,3,4,5,10c-hexahydro-3a,6-diaza-cyclopenta[c]fluoren-6-yl)-ethanol], for which the “Percentage inhibition of ligand binding, Adrenergic α2A (0.1 μM)” value in experiment [1] (setting [4]) is 65%. Besides, in experiment [2] (setting [8]), the inhibition at 0.1 µM is 99%. The inhibition at 0.03 µM in experiment [3] (setting [9]) is 101%.
For the compound `CN1CCc2c(n(CC(C)(O)c3cccnc3)c3ccc(Cl)cc23)C1` (single isomer, unassigned) [28a], the inhibition at 0.1 µM in experiment [1] (setting [13]) was found to be 28%. The “Percentage inhibition of ligand binding, Adrenergic α1B” value in experiment [2] (setting [10]) worked out at 41%. Moreover, the “Percentage inhibition of ligand binding, Adrenergic α2B” value in experiment [3] (setting [11]) was determined as 96%.
Take `CN1CCc2c(c3c(Cl)cccc3n2CCc2ccccc2)C1` [compound 214]: the figures for the Ki in experiment [1] and in experiment [3] (read-out: Ki α2B) were 22.7 nM and 12.9 nM, respectively. Also, the “Percentage inhibition of ligand binding, Adrenergic α2A (0.1 μM)” value in experiment [1] (setting [4]) was 64%. In addition, the inhibition at 0.03 µM in experiment [1] (read-out: Percentage inhibition of ligand binding, Adrenergic α2A (0.03 μM), compound at 0.03 μM, [3H]MK-912, repeat datapoints each shown) was 37%; in experiment [3] (setting [9]) it was 48%. For the same compound, the inhibition at 0.1 µM worked out at 58% in experiment [1] (setting [7]), 18% in experiment [2] (setting [8]) and 80% in experiment [3] (setting [12]).
`CCCCCCC(=O)OC(Cn1c2c(c3cc(C)ccc31)CN(C)CC2)c1ccncc1` (centres unmarked) [compound 338, heptanoic acid 2-(2,8-dimethyl-1,2,3,4-tetrahydro-pyrido[4,3-b]indol-5-yl)-1-pyridin-4-yl-ethyl ester]: the inhibition at 0.1 µM was 60% in experiment [1] (0.1 μM compound, read-out: Percentage inhibition of ligand binding, Adrenergic α2A) and 16% in experiment [2] (0.1 μM compound, read-out: Percentage inhibition of ligand binding, Adrenergic α1B). The inhibition at 0.03 µM in experiment [3] (0.03 μM compound, read-out: Percentage inhibition of ligand binding, Adrenergic α2B) was 102%.
